Entries after “also recorded” stand apart in the source; their conditions may differ.
B1: heme:Hx: heme-hemopexin complex (1 mM) injected into striatum (protein, UniProt P02790 24-462, looked up)
Hemopexin: TPLPPTSAHGNVAEGETKPDPDVTERCSDGWSFDATTLDDNGTMLFFKGEFVWKSHKWDRELISERWKNFPSPVDAAFRQGHNSVFLIKGDKVWVYPPEKKEKGYPKLLQDEFPGIPSPLDAAVECHRGECQAEGVLFFQGDREWFWDLATGTMKERSWPAVGNCSSALRWLGRYYCFQGNQFLRFDPVRGEVPPRYPRDVRDYFMPCPGRGHGHRNGTGHGNSTHHGPEYMRCSPHLVLSALTSDNHGATYAFSGTHYWRLDTSRDGWHSWPIAHQWPQGPSAVDAAFSWEEKLYLVQGTQVYVFLTKGGYTLVSGYPKRLEKEVGTPHGIILDSVDAAFICPGSSRLHIMAGRRLWWLDLKSGAQATWTELPWPHEKVDGALCMEKSLGPNSCSANGPGLYLIHGPNLYCYSDVEKLNAAKALPQPQNVTSLLGCTH
modifications: heme complex
notes: heme-hemopexin complex (1 mM) injected into striatum

Experiments:
C57BL/6J mice [1] = assay: striatal injection model, behavioural testing (open field, rotarod, beam walk); type: in vivo; conditions: 24 hours after striatal injection of 10 μL, 1 mM; n=6 per group; FIG. 12
Description: (§1) Wild-type male C57BL/6J mice (10-12 weeks) were obtained from Charles River (Sulzfeld, Germany) and maintained at the animal facility of the University of Zurich (LASC) and treated in accordance with the guidelines of the Swiss Federal Veterinary Office.
Mice were anesthetized with isoflurane (4-5% for induction, 1-2% for maintenance; Baxter Healthcare Co. Deerfield, IL, USA) evaporated in 100% oxygen. Throughout the surgical procedure, body temperature was monitored with a rectal probe and maintained constant with the use of an electronic thermostat-controlled warming blanket. Anesthetized mice were placed in a motorized stereotaxic frame (Stoelting, Dublin, Ireland) and a 1 cm long midline skin incision was made. After removal of the soft tissue covering the skull, the frame referenced to bregma and a small burrhole was drilled above the entry point for the target. Then a 33G needle was slowly advanced (0.1 mm/s) into the striatum (bregma coordinates: 2 mm ML, 0.5 mm AP, 3.5 mm DV) followed by injection of 10 μL heme-albumin (1 mM), haptoglobin (5 mM) (protein control group) or heme-hemopexin (1 mM) with an infusion rate of 100 nl/s. […] After the surgical procedure, the animals were placed in a heated wake up box and monitored until they were fully recovered and could be transferred back to their homecage.
The open field exploration tests were conducted in four identical square arenas (40×40×35 cm high) made of opaque acrylic glass, located in a testing room under diffused lighting (approximately 35 Ix as measured in the center of the arenas). […] The total distance moved during 10 minutes (in cm), beginning after a 5 minutes acclimatization phase was measured.
For the rotarod behavioural testing the mice are placed on a rotating cylinder and therefore forced to walk. […] The time until the mice fall off the cylinder is measured.
For discrete neurological deficits, mice were subjected to a beam walk test. […] During the assessment, the motor function was scored by two investigators blinded to treatment.

C57BL/6J mice [2] = assay: striatal injection model, MRI (T2, ASL, DWI); type: in vivo; conditions: for quantification of edema size and perfusion: 24, 48 and 72 hours after striatal injection, n=4 per group, FIG. 14; for radiological changes (T2, ADC map, ASL): 24 hours after striatal injection, FIG. 13
Description: as §1
Mice were anesthetized with isoflurane (4-5% for induction, 1-2% for maintenance; Baxter Healthcare Co. Deerfield, IL, USA) evaporated in 100% oxygen. Throughout the surgical procedure, body temperature was monitored with a rectal probe and maintained constant with the use of an electronic thermostat-controlled warming blanket. Anesthetized mice were placed in a motorized stereotaxic frame (Stoelting, Dublin, Ireland) and a 1 cm long midline skin incision was made. After removal of the soft tissue covering the skull, the frame referenced to bregma and a small burrhole was drilled above the entry point for the target. Then a 33G needle was slowly advanced (0.1 mm/s) into the striatum (bregma coordinates: 2 mm ML, 0.5 mm AP, 3.5 mm DV) followed by injection of 10 μL heme-albumin (1 mM), haptoglobin (5 mM) (protein control group) or heme-hemopexin (1 mM) with an infusion rate of 100 nl/s. The needle was left in place for 5 minutes, then removed slowly and the skin incision was closed with a suture. After the surgical procedure, the animals were placed in a heated wake up box and monitored until they were fully recovered and could be transferred back to their homecage.
Mice were anesthetized with isoflurane (4-5% for induction, 1-2% for maintenance; Baxter Healthcare Co. Deerfield, IL, USA) evaporated in 100% oxygen. Throughout the imaging procedure, body temperature was monitored with a rectal probe and maintained constant with the use of a warming blanket and respiratory rate was recorded by plethysmography. Mice were placed into a 7 T small animal MRI scanner (Brucker, Germany). T2, ASL and DWI images were recorded according to a standardized protocol.

porcine basilar arteries = assay: vascular function assay, porcine basilar arteries pre-contracted with PGF2α
Protocol: The vascular function assay (FIG. 7E) was performed using fresh porcine basilar arteries obtained from a local abattoir (n=12). Vessels were pre stretched to reach 8 the optimal passive pretension as previously published (Hugelshofer et al., 2020). Then, 10 μM prostaglandin F2α (PGF2α; Sigma, Buchs, Switzerland) was used as a pre-contracting agent. In order to determine the maximum possible tension in absence of endogenous NO, L-N5-(1-Iminoethyl) ornithine hydrochloride (L-NIO; Sigma-Aldrich, Saint Louis, US-MO) at a concentration of 10 μM was added at the end of the experiment. The recorded tension was normalized to the individual NO reserve capacity of the respective vessel, i.e. the baseline tension after addition of PGF2α (0%) and the tension after addition of L-NIO at the end of the experiment (100%) (FIG. 7F). Damaged vessels with a continuous loss in tension over the duration of the experiment, resulting in a PGF2α max/L-NIO max ratio below 0.7, were excluded from the analysis (FIG. 7F). A first series of experiments was conducted to evaluate the vasoconstrictive potential of the patient CSF in the high-risk phase for SAH-SBI after aSAH and to assess the specific role of oxyHb in this process. […] In a second series of experiments, the influence of an increasing exposure to Hb on the vascular tension was assessed. […]

CSF-Hb = target: T1, CSF-Hb (Homo sapiens, UniProt P68871+P69905); assay: oxidative potential of patient CSF after aSAH (TBARS, MDA formation) with addition of Hp or hemopexin; type: biochemical; conditions: added at equimolar concentration, patient CSF of high risk phase week 0.5-2, FIG. 5D
T1 construct: from tissue; host or cells: cerebrospinal fluid of patients after aSAH (high-risk phase, week 0.5-2)
Protocol: Hb used in ex vivo experiments was purified from expired human blood concentrates as previously described (Elmer et al., 2009). Hb concentrations were determined by spectral deconvolution as described above and are given as molar concentrations of total heme (1 M Hb tetramer is equivalent to 4 M heme). Hx was used in equimolar concentration to the concentration of heme measured in the test sample. For all Hb used in these studies, the fraction of ferrous oxyHb (HbFe2+O2) was always greater than 98% as determined by spectrophotometry. Purified haptoglobin (phenotype 1-1) and hemopexin from human plasma was obtained from CSL Behring.
The oxidative potential of CSF samples was quantified by measuring the formation of malondialdehyde (MDA) as the final product of lipid peroxidation after incubation with a well-defined reconstituted lipoprotein (rLP, obtained from CSL Behring, Bern, Switzerland) (FIG. 7G). Using a 96-well plate, 25 μL CSF were mixed with 5 μL rLP (3 mg/mL) and incubated at 37° C. for 24 hours. Subsequently, the concentration of MDA was measured using a thiobarbituric acid reactive substance (TBARS) assay. In short 125 μL of 750 mM trichloroacetic acid in 1 M HCl was added to the samples, followed by short vortexing and subsequent addition of 100 μL 25 mM 2-thiobarbituric acid in 1 M NaOH.
After an incubation period at 80° for 60 min, the TBARS in the supernatant were quantified. For absolute quantification of MDA, the absorption at 600 nm was subtracted from the absorption at 532 nm and the concentration was calculated with the molar extinction 9 coefficient of […]. To achieve a more sensitive but relative quantification, the fluorescence emission was measured at 550 nm, using 510 nm as excitation wavelength.

[3] = formation of heme:Hx complexes in the CSF; conditions: cell-free heme within the subarachnoid space
[4] = read-out: ability to bind heme with high affinity (Kd); cited from earlier work

T1 sequence (P69905 2-142 limits assumed): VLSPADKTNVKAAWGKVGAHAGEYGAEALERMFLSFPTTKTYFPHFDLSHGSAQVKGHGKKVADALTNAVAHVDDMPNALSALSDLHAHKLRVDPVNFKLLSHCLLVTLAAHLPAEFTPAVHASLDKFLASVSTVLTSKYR
T1 sequence (P68871 2-147 limits assumed): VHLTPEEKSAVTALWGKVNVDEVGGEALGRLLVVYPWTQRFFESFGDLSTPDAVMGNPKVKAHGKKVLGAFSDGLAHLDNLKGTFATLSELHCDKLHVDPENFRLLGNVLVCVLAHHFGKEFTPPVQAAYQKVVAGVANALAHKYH

Row | Molecule | neurological function (open-field, rotarod, beamwalk testing) (C57BL/6J mice [1]) | quantification of edema size and perfusion (C57BL/6J mice [2]) | MDA formation (lipid peroxidation) (CSF-Hb) | other results
1 | C=CC1=C(C)c2cc3[n-]c(cc4[n-]c(cc5nc(cc1n2)C(C)=C5C=C)c(C)c4CCC(=O)O)c(CCC(=O)O)c3C.[Fe+2] [heme] | impaired neurological function; also recorded: impaired neurobehavioral function | formation of a cerebral edema and a regionally decreased perfusion |  | radiological changes (T2, ADC map, ASL) (C57BL/6J mice [2]): perilesional edema, a diffusion restriction in the ADC map and a focal perfusion deficit
2 | Hp1-1: Purified haptoglobin (phenotype 1-1) from human plasma obtained from CSL Behring |  |  | effectively attenuated MDA formation | contractile force of basilar arteries (anti-vasospastic effect) (porcine basilar arteries; Hb dose escalation with equimolar haptoglobin, repeated measures ANOVA p<0.001, FIG. 5C): significantly attenuated the contractile force; MDA formation (lipid peroxidation) (CSF-Hb; listed as haptoglobin): partial inhibition
3 | hemopexin: Purified hemopexin from human plasma obtained from CSL Behring; heme-scavenger protein | abrogates the heme-mediated impairment of neurological function |  | even stronger attenuation of MDA formation; also recorded: virtually blocked the formation of MDA; also recorded: surpassed the antioxidant function of haptoglobin | period of exposure sufficient to form detectable heme:Hx complexes in the CSF [3]: at least 2 minutes; Kd [4]: < 1 pM
4 | oxyHb: Hb purified from expired human blood concentrates; fraction of ferrous oxyHb greater than 98% [reference compound] |  |  |  | oxyHb concentration reaching maximum contraction (porcine basilar arteries; FIG. 4A): 10^−5 M
5 | B1 | no impairment in neurobehavioral activity | absent |  | radiological changes (T2, ADC map, ASL) (C57BL/6J mice [2]; listed as heme:Hpx): only minor radiological changes; also recorded: largely absent

From US20250339492A1, “METHOD OF TREATING OR PREVENTING AN ADVERSE SECONDARY NEUROLOGICAL OUTCOME FOLLOWING A HAEMORRHAGIC STROKE” (CSL BEHRING AG, priority 2021, published 2025)
